# From paper PMC6398866 (PLoS ONE, 2019)
# Legend:
# [1] = test system: spontaneously hypertensive rats (SHR); set-up: method as in PMID 22389387; conditions: long-term treatment, SHR ref 22; cited from earlier work
# [2] = test system: high-fat diet-induced hypertension; set-up: method as in PMID 28720877; conditions: by downregulating Ang II and AT1 ref 24; cited from earlier work
# [3] = test system: Ang II-induced hypertensive mice; conditions: cited from earlier work
# AT1 = conditions: through AT1 ref 25; cited from earlier work
# [4] = test system: Ang II-induced hypertensive mice; assay: Systolic blood pressure (tail-cuff) in Ang II-induced hypertensive mice; type: in vivo; conditions: Ang II-infused mice, 3 mg·kg^-1·day^-1 i.p. day 8 to 14, vs Ang II group
# Source text: All animal experiments were approved by the Animal Experiment Committee of the Chonnam National University Medical School (CNU IACUC-H-2017-70) and carried out in accordance with the Guide for the Care and Use of Laboratory Animals (US National Institutes of Health Publication, 8th edition, 2011). CD-1 male mice (8-week-old) were purchased from OrientBio Company (Gyeonggi, South Korea). Alzet mini-osmotic pumps (model 1002) were purchased from Durect Corporation (Cupertino, CA, USA).
# AT1 mRNA = assay: qRT-PCR of aortic tissue, Ang II mice; type: in vivo; conditions: Ang II-infused mice, 3 mg·kg^-1·day^-1 i.p. day 8 to 14, vs Ang II group
# ANP mRNA = assay: qRT-PCR of heart tissue, Ang II mice; type: in vivo; conditions: Ang II-infused mice, 3 mg·kg^-1·day^-1 i.p. day 8 to 14, vs Ang II group
# BNP mRNA = assay: qRT-PCR of heart tissue, Ang II mice; type: in vivo; conditions: Ang II-infused mice, 3 mg·kg^-1·day^-1 i.p. day 8 to 14, vs Ang II group
# skeletal α-actin mRNA = assay: qRT-PCR of heart tissue, Ang II mice; type: in vivo; conditions: Ang II-infused mice, 3 mg·kg^-1·day^-1 i.p. day 8 to 14, vs Ang II group
# [5] = test system: Ang II-induced hypertensive mice; assay: Aortic wall thickness (H&E staining) in Ang II mice; type: in vivo; conditions: Ang II-infused mice, 3 mg·kg^-1·day^-1 i.p. day 8 to 14, H&E, vs Ang II group
# cyclin D1 mRNA = assay: qRT-PCR of aortic tissue, Ang II mice; type: in vivo; conditions: Ang II-infused mice, 3 mg·kg^-1·day^-1 i.p. day 8 to 14, vs Ang II group
# cyclin E1 mRNA = assay: qRT-PCR of aortic tissue, Ang II mice; type: in vivo; conditions: Ang II-infused mice, 3 mg·kg^-1·day^-1 i.p. day 8 to 14, vs Ang II group
# E2F3 mRNA = assay: qRT-PCR of aortic tissue, Ang II mice; type: in vivo; conditions: Ang II-infused mice, 3 mg·kg^-1·day^-1 i.p. day 8 to 14, vs Ang II group
# GATA6 mRNA = assay: qRT-PCR of aortic tissue, Ang II mice; type: in vivo; conditions: Ang II-infused mice, 3 mg·kg^-1·day^-1 i.p. day 8 to 14, vs Ang II group
# rat aortic rings = assay: Isometric tension measurement, U46619-precontracted aortic rings
# Procedure: A vasoconstriction-relaxation study was performed as described previously. Male Sprague-Dawley rats were purchased from Orient Bio (Gyeonggi-do, South Korea). Briefly, the thoracic aortas of the rats were excised and immersed in ice-cold, modified Krebs solution. The aortas were cleaned of all connective tissue, soaked in Krebs-bicarbonate solution, and cut into four ring segments (3.5 mm long). Each aortic ring was suspended in a water-jacketed organ bath (6 mL) maintained at 37°C and aerated with a mixture of 95% O2 and 5% CO2. Each ring was connected to an isometric force transducer (Danish Myo Technology, Skejbyparken, Aarhus N, Denmark). The rings were stretched to an optimal resting tension of 1.0 or 2.0 g, which was maintained throughout the experiment. Each ring was equilibrated in the organ bath solution for 90 min before the contractile responses were measured after the addition of 50 mM KCl.
# [6] = test system: vascular smooth muscle cells (VSMCs); assay: NO production in VSMC medium (Griess assay); type: cell-based; conditions: MS-275 3 and 10 μM, Ang II 1 μM, 24 h, Griess reagent
# Procedure: VSMCs were seeded in 12 well plates.
# arginase 1 mRNA = assay: qRT-PCR of aortic tissue, Ang II mice; type: in vivo; conditions: Ang II-infused mice, 3 mg·kg^-1·day^-1 i.p. day 8 to 14, vs Ang II group
# arginase 2 mRNA = assay: qRT-PCR of aortic tissue, Ang II mice; type: in vivo; conditions: Ang II-infused mice, 3 mg·kg^-1·day^-1 i.p. day 8 to 14, vs Ang II group
# GTPCH mRNA = assay: qRT-PCR of aortic tissue, Ang II mice; type: in vivo; conditions: Ang II-infused mice, 3 mg·kg^-1·day^-1 i.p. day 8 to 14, vs Ang II group
# Nox1 mRNA = assay: qRT-PCR of aortic tissue, Ang II mice; type: in vivo; conditions: Ang II-infused mice, 3 mg·kg^-1·day^-1 i.p. day 8 to 14, vs Ang II group
# Nox2 mRNA = assay: qRT-PCR of aortic tissue, Ang II mice; type: in vivo; conditions: Ang II-infused mice, 3 mg·kg^-1·day^-1 i.p. day 8 to 14, vs Ang II group
# p47phox mRNA = assay: qRT-PCR of aortic tissue, Ang II mice; type: in vivo; conditions: Ang II-infused mice, 3 mg·kg^-1·day^-1 i.p. day 8 to 14, vs Ang II group
# Cox-2 mRNA = assay: qRT-PCR of aortic tissue, Ang II mice; type: in vivo; conditions: Ang II-infused mice, 3 mg·kg^-1·day^-1 i.p. day 8 to 14, vs Ang II group
# SOD3 mRNA = assay: qRT-PCR of aortic tissue, Ang II mice; type: in vivo; conditions: Ang II-infused mice, 3 mg·kg^-1·day^-1 i.p. day 8 to 14, vs Ang II group
# iNOS mRNA = assay: qRT-PCR of aortic tissue, Ang II mice; type: in vivo; conditions: Ang II-infused mice, 3 mg·kg^-1·day^-1 i.p. day 8 to 14, vs Ang II group
# TNF-α mRNA = assay: qRT-PCR of aortic tissue, Ang II mice; type: in vivo; conditions: Ang II-infused mice, 3 mg·kg^-1·day^-1 i.p. day 8 to 14, vs Ang II group
# IL-1β mRNA = assay: qRT-PCR of aortic tissue, Ang II mice; type: in vivo; conditions: Ang II-infused mice, 3 mg·kg^-1·day^-1 i.p. day 8 to 14, vs Ang II group
# MCP-1 mRNA = assay: qRT-PCR of aortic tissue, Ang II mice; type: in vivo; conditions: Ang II-infused mice, 3 mg·kg^-1·day^-1 i.p. day 8 to 14, vs Ang II group
# VCAM-1 mRNA = assay: qRT-PCR of aortic tissue, Ang II mice; type: in vivo; conditions: Ang II-infused mice, 3 mg·kg^-1·day^-1 i.p. day 8 to 14, vs Ang II group
# ICAM-1 mRNA = assay: qRT-PCR of aortic tissue, Ang II mice; type: in vivo; conditions: Ang II-infused mice, 3 mg·kg^-1·day^-1 i.p. day 8 to 14, vs Ang II group
# CD68+ macrophages = assay: CD68 immunohistochemistry of aorta (macrophage infiltration), Ang II mice; type: in vivo; conditions: Ang II-infused mice, 3 mg·kg^-1·day^-1 i.p. day 8 to 14, immunohistochemistry
# Procedure: For immunohistochemistry, staining was performed in aortic tissues using a primary CD68 antibody. Before incubation with primary antibodies, aorta sections received antigen retrieval using a citrate buffer. Negative controls were performed without a primary antibody.
# [7] = test system: model of Cushing's syndrome; set-up: method as in PMID 28928236; conditions: model of Cushing's syndrome ref 23; cited from earlier work
# collagen type III mRNA = assay: qRT-PCR, Ang II mice; conditions: Ang II-infused mice, 3 mg·kg^-1·day^-1 i.p. day 8 to 14, S1 Fig
# Procedure: (§1) Mice were anesthetized with a ketamine (120 mg/kg), and xylazine (6.2 mg/kg) mixture and 1-cm incisions were created on the backs of the mice. Ang II (1.3 mg·kg^-1·day^-1) was subcutaneously infused into the mice using an Alzet osmotic pump as described previously [26]. […] Ang II was dissolved in a 0.9% sodium chloride (NaCl) solution. The sham control mice received the vehicle (dimethyl sulfoxide [DMSO]). […] Mice were sacrificed at the end of the study by CO2 inhalation.
# (§2) Total RNA from the aorta tissue and cells was isolated with TriZol reagent (Invitrogen Life Technologies, Waltham, MA, USA), and 1 μg RNA was used for the reverse transcription (RT) reaction using TOPscript RT DryMIX (Enzynomics, Daejeon, South Korea). The mRNA amounts were determined using the SYBR Green PCR kit (Enzynomics, Daejeon, South Korea). All the data were normalized to the glyceraldehyde 3-phosphate dehydrogenase (GAPDH) expression using the 2-^ΔΔct method.
# ACE1 mRNA = assay: qRT-PCR of aortic tissue, Ang II mice; conditions: Ang II-infused mice, 3 mg·kg^-1·day^-1 i.p. day 8 to 14
# Procedure: as §1, §2
# DDAH1 mRNA = assay: qRT-PCR of aortic tissue, Ang II mice; conditions: Ang II-infused mice, 3 mg·kg^-1·day^-1 i.p. day 8 to 14, vs Ang II group
# Procedure: as §1, §2
# [8] = test system: Ang II-induced hypertensive mice; assay: NO levels in serum and aorta of Ang II-infused mice (Griess assay); conditions: 3 mg·kg^-1·day^-1 i.p.
# Procedure: Mice were anesthetized with a ketamine (120 mg/kg), and xylazine (6.2 mg/kg) mixture and 1-cm incisions were created on the backs of the mice. Ang II (1.3 mg·kg^-1·day^-1) was subcutaneously infused into the mice using an Alzet osmotic pump as described previously [26]. […] Ang II was dissolved in a 0.9% sodium chloride (NaCl) solution. The sham control mice received the vehicle (dimethyl sulfoxide [DMSO]). […] Mice were subjected to blood pressure measurements three times before determination of the systolic blood pressure on day 14 after Ang II infusion. The blood pressure was measured in awake mice using the tail-cuff method (BP-2000, Visitech Systems, Apex, NC, USA).
# NO levels in the serum (100 μl) were measured without dilution. Aorta NO levels were determined using 50 μg of protein, which was deproteinized with 5% trichloroacetic acid (TCA).
# [9] = test system: Ang II-induced hypertensive mice; assay: Aortic collagen deposition (Masson's trichrome staining) in Ang II mice; conditions: Ang II-infused mice, 3 mg·kg^-1·day^-1 i.p. day 8 to 14, Masson's trichrome
# Procedure: Mice were anesthetized with a ketamine (120 mg/kg), and xylazine (6.2 mg/kg) mixture and 1-cm incisions were created on the backs of the mice. Ang II (1.3 mg·kg^-1·day^-1) was subcutaneously infused into the mice using an Alzet osmotic pump as described previously [26]. […] Ang II was dissolved in a 0.9% sodium chloride (NaCl) solution. The sham control mice received the vehicle (dimethyl sulfoxide [DMSO]). […] Mice were subjected to blood pressure measurements three times before determination of the systolic blood pressure on day 14 after Ang II infusion. The blood pressure was measured in awake mice using the tail-cuff method (BP-2000, Visitech Systems, Apex, NC, USA). Mice were sacrificed at the end of the study by CO2 inhalation.
# Aortic tissues were fixed in 4% paraformaldehyde at 25°C, embedded in paraffin, and cut into 3-μm thick sections. The tissue slides were deparaffinized three times with xylene and hydrated using serially diluted ethanol. After immersing in tap water for 2 min, the slides were stained with Gill’s hematoxylin V for 5 min and then washed with tap water for 5 min and 95% ethanol for 2 min. The slides were stained with Eosin Y for 1 min, dehydrated with ethanol and xylene, and mounted using Canada balsam. The aortic wall thickness was measured using the NIS Elements Software (Nikon, Japan). […]
compound,measurement,setting,value
"CCCC(CCC)C(=O)O [VPA, valproic acid]","cardiac hypertrophy, inflammation, and hypertensive responses",[1],reduces
same,high-fat diet-induced hypertension,[2],prevents
Cn1c(/C=C/C(=O)NO)ccc1/C=C/C(=O)c1cccc(F)c1 [MC1568],high systolic blood pressure,[3]; Ang II-induced hypertensive mice ref 26,reduces
"CC(/C=C/C(=O)NO)=C\[C@@H](C)C(=O)c1ccc(N(C)C)cc1 [TSA, trichostatin A]",hypertension and vasoconstriction,AT1,inhibits
Nc1ccccc1NC(=O)c1ccc(CNC(=O)OCc2cccnc2)cc1 [MS-275],systolic blood pressure,[4],significantly reduced
same,AT1 mRNA level in aorta,AT1 mRNA,decreased
same,ANP mRNA level in heart,ANP mRNA,significantly reduced
same,BNP mRNA level in heart,BNP mRNA,significantly reduced
same,skeletal a-actin mRNA level in heart,skeletal α-actin mRNA,significantly reduced
same,aortic wall thickness,[5],significantly decreased
same,cyclin D1 mRNA level in aorta,cyclin D1 mRNA,not significantly decreased
same,cyclin E1 mRNA level in aorta,cyclin E1 mRNA,not significantly decreased
same,E2F3 mRNA level in aorta,E2F3 mRNA,significantly inhibited
same,GATA6 mRNA level in aorta,GATA6 mRNA,significantly suppressed
same,vasorelaxation of U46619-precontracted aortic rings,"rat aortic rings; endothelium-intact and -denuded rat aortas, U46619 30 nM, MS-275 cumulative 0.003–3 μM",induced vasorelaxation
same,concentration at which maximum relaxation was observed,rat aortic rings; rat aortic rings precontracted with U46619 30 nM,3 µM
same,NO level in VSMC medium lowered by Ang II,[6],significantly restored
same,arginase 1 mRNA level in aorta,arginase 1 mRNA,not reduced
same,arginase 2 mRNA level in aorta,arginase 2 mRNA,not reduced
same,GTPCH mRNA level in aorta,GTPCH mRNA,significantly reduced
same,Nox1 mRNA level in aorta,Nox1 mRNA,unchanged
same,Nox2 mRNA level in aorta,Nox2 mRNA,unchanged
same,p47phox mRNA level in aorta,p47phox mRNA,unchanged
same,Cox-2 mRNA level in aorta,Cox-2 mRNA,not significantly decreased
same,SOD3 mRNA expression in aorta,SOD3 mRNA,did not restore
same,iNOS mRNA level in aorta,iNOS mRNA,significantly attenuated
same,TNF-α mRNA level in aorta,TNF-α mRNA,significantly attenuated
same,IL-1β mRNA level in aorta,IL-1β mRNA,significantly attenuated
same,MCP-1 mRNA level in aorta,MCP-1 mRNA,significantly attenuated
same,VCAM-1 expression in aorta,VCAM-1 mRNA,significantly inhibited
same,ICAM-1 expression in aorta,ICAM-1 mRNA,significantly inhibited
same,number of CD68+ macrophages in aorta tissue,CD68+ macrophages,reduced
same,hypertension and hyperglycemia,[7],attenuates
same,collagen type III mRNA level,collagen type III mRNA,reduced
same,ACE1 mRNA level in aorta,ACE1 mRNA,significantly reduced
same,DDAH1 mRNA level in aorta,DDAH1 mRNA,suppressed
same,NO level in aorta,[8],not induced
same,NO level in serum,[8],not induced
same,collagen deposition in the adventitia of aortic tissues,[9],attenuated
"COC(=O)[C@@H](N)CCCNC(N)=N[N+](=O)[O-] [L-NAME, N^G-nitro-L-arginine methyl ester]",effect of pretreatment on MS-275-induced vascular relaxation,"rat aortic rings; endothelium-intact rat aortic rings, L-NAME 10 or 100 μM for 30 min",reduced
CN1CCc2c(c3ccccc3n2Cc2ccc(C(=O)NO)cc2)C1 [tubastatin A],hypertension,[3]; Ang II-infused mice ref 28,did not reduce
Nc1cc(F)ccc1NC(=O)/C=C/c1cnn(C/C=C/c2ccccc2)c1 [RGFP966],systolic blood pressure,[4],significantly reduced
same,ANP mRNA level in heart,ANP mRNA,significantly reduced
same,BNP mRNA level in heart,BNP mRNA,significantly reduced
same,skeletal a-actin mRNA level in heart,skeletal α-actin mRNA,significantly reduced
same,aortic wall thickness,[5],significantly decreased
same,cyclin D1 mRNA level in aorta,cyclin D1 mRNA,not significantly decreased
same,cyclin E1 mRNA level in aorta,cyclin E1 mRNA,not significantly decreased
same,E2F3 mRNA level in aorta,E2F3 mRNA,significantly inhibited
same,GATA6 mRNA level in aorta,GATA6 mRNA,significantly suppressed
same,arginase 1 mRNA level in aorta,arginase 1 mRNA,not reduced
same,arginase 2 mRNA level in aorta,arginase 2 mRNA,not reduced
same,GTPCH mRNA level in aorta,GTPCH mRNA,significantly reduced
same,Nox1 mRNA level in aorta,Nox1 mRNA,unchanged
same,Nox2 mRNA level in aorta,Nox2 mRNA,unchanged
same,p47phox mRNA level in aorta,p47phox mRNA,unchanged
same,Cox-2 mRNA level in aorta,Cox-2 mRNA,not significantly decreased
same,SOD3 mRNA expression in aorta,SOD3 mRNA,did not restore
same,iNOS mRNA level in aorta,iNOS mRNA,not
same,MCP-1 mRNA level in aorta,MCP-1 mRNA,not
same,VCAM-1 expression in aorta,VCAM-1 mRNA,not
same,number of CD68+ macrophages in aorta tissue,CD68+ macrophages,reduced
